What was measured:
Assay in all cases: In vitro antifungal activity, microbroth dilution MIC
Type in all cases: cell-based
Conditions in all cases: RPMI-1640, 35° C., 4 to 48 hours, no growth observed
[1] = test system: Trichophyton mentagrophytes A. 9129
Procedure, shortened: (§1)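 Broth microdilution adapted from NCCLS M27, in RPMI-1640 with 0.165 M MOPS, pH 7.0. Yeast or mould inoculum at 2×10^3 CFU/ml was mixed 1:1 with DMSO-derived compound solutions (200 to 0.10 μg/ml before mixing) and incubated at 35 °C for 4 to 48 h. MIC was the concentration showing no growth.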

Candida albicans C1-2 = test system: Candida albicans C1-2
Procedure, shortened: as §1

[2] = test system: Cryptococcus neoformans IFM. 40092
Procedure, shortened: as §1

[3] = test system: Candida parapsitosis A. 7330
Procedure, shortened: as §1

[4] = test system: Torulopsis glabrata B. 16205
Procedure, shortened: as §1

[5] = test system: Aspergillus furnigatus B. 19119
Procedure, shortened: as §1

[6] = test system: Candida albicans A. 10231
Procedure, shortened: as §1

[7] = test system: Trichophyton mentagrophytes B. 32663
Procedure, shortened: as §1

[8] = test system: Cryptococcus neoformans B. 42419
Procedure, shortened: as §1

[9] = test system: Candida tropicalis A. 13803
Procedure, shortened: as §1

[10] = test system: Candida pseudotropicalis K. 11658
Procedure, shortened: as §1

[11] = test system: Aspergillus niger A. 16404
Procedure, shortened: as §1

Candida krusei K. 11655 = test system: Candida krusei K. 11655
Procedure, shortened: as §1

[12] = test system: Cryptococcus neoformans A. 34144
Procedure, shortened: as §1

[13] = test system: Candida albicans IFO. 1385
Procedure, shortened: as §1

Minimal inhibitory concentration(MIC), T. mentagrophytes A. 9129 [1] [µg/mL] | Minimal inhibitory concentration(MIC), C. albicans C1-2 (Candida albicans C1-2) [µg/mL] | Minimal inhibitory concentration(MIC), Cry. neoformans IFM. 40092 [2] [µg/mL] | Minimal inhibitory concentration(MIC), C. parapsitosis A. 7330 [3] [µg/mL] | Minimal inhibitory concentration(MIC), T. glabrata B. 16205 [4] [µg/mL] | Minimal inhibitory concentration(MIC), A furnigatus B. 19119 [5] [µg/mL] | Minimal inhibitory concentration(MIC), C. albicans A. 10231 [6] [µg/mL] | Minimal inhibitory concentration(MIC), T. mentagrophytes B. 32663 [7] [µg/mL] | Minimal inhibitory concentration(MIC), Cry. neoformans B. 42419 [8] [µg/mL] | Minimal inhibitory concentration(MIC), C. tropicalis A. 13803 [9] [µg/mL] | Minimal inhibitory concentration(MIC), C. pseudotropicalis K. 11658 [10] [µg/mL] | Minimal inhibitory concentration(MIC), A. niger A. 16404 [11] [µg/mL] | Minimal inhibitory concentration(MIC), C. krusei K. 11655 (Candida krusei K. 11655) [µg/mL] | Minimal inhibitory concentration(MIC), Cry. neoformans A. 34144 [12] [µg/mL] | Minimal inhibitory concentration(MIC), C. albicans IFO. 1385 [13] [µg/mL] | SMILES
25.0 | 50.0 | 0.78 | >100 | 50.0 | >100 | 25.0 | 12.5 | 3.13 | >100 | >100 | >100 | >100 | 3.13 | 3.13 | Cc1ccc(C(=C(F)Oc2ccc(OCC3COC(Cn4ccnc4)(c4ccc(Cl)cc4Cl)O3)cc2)C(F)(F)F)cc1 (mixture of isomers) [Ex. 94]
12.5 | 100 | 0.39 | >100 | 100 | 100 | 100 | 6.25 | 3.13 | >100 | >100 | >100 | >100 | 3.13 | 3.13 | FC(Oc1ccc(OCC2COC(Cn3ccnc3)(c3ccc(Cl)cc3Cl)O2)cc1)=C(c1cccc(C(F)(F)F)c1)C(F)(F)F (mixture of isomers) [Ex. 96]
25.0 | >100 | 0.78 | >100 | 100 | >100 | >100 | 12.5 | 3.13 | >100 | >100 | >100 | >100 | 3.13 | 3.13 | FC(Oc1ccc(OCC2COC(Cn3ccnc3)(c3ccc(Cl)cc3Cl)O2)cc1)=C(c1ccc(C(F)(F)F)cc1)C(F)(F)F (mixture of isomers) [Ex. 97]
25.0 | 100 | 0.78 | >100 | 50 | >100 | 50.0 | 6.25 | 6.25 | >100 | >100 | >100 | >100 | 3.13 | 3.13 | COc1ccc(C(=C(F)Oc2ccc(OCC3COC(Cn4ccnc4)(c4ccc(Cl)cc4Cl)O3)cc2)C(F)(F)F)cc1 (mixture of isomers) [Ex. 98]
50.0 | >100 | 0.78 | >100 | 100 | >100 | 100 | 25.0 | 3.13 | >100 | >100 | >100 | >100 | 3.13 | 3.13 | FC(Oc1ccc(OCC2COC(Cn3ccnc3)(c3ccc(Cl)cc3Cl)O2)cc1)=C(c1ccc2c(c1)OCO2)C(F)(F)F (mixture of isomers) [Ex. 99]
100 | 100 | 1.56 | >100 | >100 | >100 | 50.0 | 100 | 12.5 | >100 | >100 | >100 | >100 | 6.25 | 6.25 | FC(Oc1ccc(OCC2COC(Cn3ccnc3)(c3ccc(Cl)cc3Cl)O2)cc1)=C(c1ccc(Oc2ccccc2)cc1)C(F)(F)F (mixture of isomers) [Ex. 100]
25.0 | 50.0 | 0.78 | >100 | 25.0 | 50.0 | 25.0 | 12.5 | 3.13 | >100 | >100 | >100 | >100 | 3.13 | 3.13 | FC(Oc1ccc(OCC2COC(Cn3ccnc3)(c3ccc(Cl)cc3Cl)O2)cc1)=C(c1cccc(Cl)c1)C(F)(F)F (mixture of isomers) [Ex. 101]
25.0 | 100 | 3.13 | >100 | 100 | 100 | 100 | 12.5 | >100 | >100 | >100 | >100 | >100 | 12.5 | 6.25 | FC(Oc1ccc(OCC2COC(Cn3ccnc3)(c3ccc(Cl)cc3Cl)O2)cc1)=C(c1ccc(Cl)cc1)C(F)(F)F (mixture of isomers) [Ex. 102]
